# According to patent publication US20160031937A1, “NEURAL REGENERATION PEPTIDES AND USES THEREFOR” (CURONZ HOLDINGS COMPANY LIMITED, priority 2013, published 2016):
# Where two headings read alike, the source gives them in different places. Square brackets hold non-standard residues; d marks the D form. Ends that are not written are not given here. Aib = CC(C)(N)C(=O)O
# What was measured:
# [1] = test system: human W9-hESCs; format: cell-based; details: for reduction in LDH detected cell death: first 4 hours; for decrease of delayed injury (LDH): between removal of OGD at 4 hours and 24 hours
# Experimental: (§1) Experiments with human embryonic stem cells (hESC) were carried out in accordance with the guidelines and regulations of the NHMRC and with the approval of the Austin Health Human Research Ethics Committee (Approval number H2008/03194), and University of Melbourne Human Research Ethics Committee (Approval number 0605017). H9 (WA-09, WiCell) cell lines were grown as previously described (Dottori & Pera, 2007).
# (§2) Briefly, hESC were cultured on mitomycin-C treated mouse embryonic fibroblasts (MEFs) in hESC medium consisting of high-glucose Dulbecco's Modified Eagle Medium (DMEM) without sodium pyruvate, supplemented with 1% insulin/transferrin/selenium, 0.1 mM β-mercaptoethanol, 1% nonessential amino acids (NEAA), 2 mM glutamine, 25 U/ml penicillin, 25 μg/ml streptomycin (all from Invitrogen) and 20% fetal calf serum (FCS) (Hyclone).
# (§3) Alternatively, hESC were cultured on mitomycin-C treated human foreskin fibroblasts (HFF; ATCC, CRL-2097) in KSR media consisting of DMEM/nutrient mixture F-12, supplemented with 0.1 mM […], 1% nonessential amino acids (NEAA), 2 mM glutamine, 25 U/ml penicillin, 25 μg/ml streptomycin and 20% knockout serum replacement (all from Invitrogen).
# (§4) All cells were cultured at 37° C. in 5% CO2 with 100% humidity. Colonies were mechanically dissected every 7 days (subcultivated or passaged) and transferred to freshly prepared MEFs or HFFs. Media was changed every second day.
# (§5) Neuronal differentiation was achieved using the noggin induction method described for mouse neurospheres as adapted by Dottori for human neurospheres (Dottori & Pera, 2007). The colonies were maintained at 37° C., with 5% CO2 in hESC medium supplemented with 500 ng/ml of Noggin for 14 days while replacing Noggin every other day.
# (§6) At this point, the cells were washed with PBS and the colonies were again mechanically dissociated, but this time the central (differentiated) part of the colony was also cut into smaller pieces using a 26-gauge needle. The pieces were transferred to individual wells in a low adherent 96-well plate containing Neurobasal®A (NBM) (Invitrogen) supplemented with 1× X B-27® (Invitrogen) and 1× N-2 (Invitrogen) 20 ng/ml human recombinant EGF and 20 ng/ml human recombinant bFGF (Pharmacia). Media was changed every 2 to 3 days to allow neurosphere formation over 2 weeks.
# (§7) In order to facilitate neuronal differentiation, neurospheres were again separated into smaller pieces under a dissection microscope, and three to four pieces were transferred to each well of a 96-well plate. Prior to this transfer, the plate was pre-coated with poly-D-lysine (10 μg/ml in PBS), washed in PBS, recoated with mouse laminin (5 μg/ml in PBS), and washed again. The cells were then grown for 11 days (with media changed every two days) in NBM lacking growth factors prior to induction of injury and assessment of hypothermia.
# (§8) On the day of experiments, the medium was changed to NBM+N2 containing a B27 preparation lacking the usual antioxidants (Invitrogen; 10889-038) to eliminate their confounding effects (NBM-AO).
# To maintain isoosmotic pressure conditions, 25 mM 2-deoxy-D-glucose was added to NBM-AO medium and equilibrated for 30 minutes at room temperature before the initial media change as described above. […] Culture supernatant was removed after this 4 hour period and stored at 4° C. until analysed for lactate dehydrogenase (LDH) activity.
# The media was replaced with fresh NBM-AO and the cells were incubated for a further 20 hours containing drug, before again measuring LDH. Oxidative stress was induced by adding 50 μM fresh H2O2 (Sigma, H1009) to the growth factor negative NBM on initiation of the experiment with continued culture for 4 hours when LDH was measured and NBM-AO without H2O2 was returned to the culture which was maintained for a further 20 hours before again measuring LDH.
# [2] = test system: human W9-hESCs; assay: H2O2 induced oxidative stress injury, LDH detected cell death; format: cell-based; details: for cell death reduced by (LDH): 50 μM H2O2, first 4 hours, corrected for basal injury; for reduced LDH release, net effect at 24 hours: H2O2 injury; for reduction of LDH detected cell death: between removal of H2O2 at 4 hours and 24 hours; for reduction of LDH release, net effect at 24 hours: H2O2
# Experimental: as §1, §2, §3, §4, §5, §6, §7, §8
# The media was replaced with fresh NBM-AO and the cells were incubated for a further 20 hours containing drug, before again measuring LDH. Oxidative stress was induced by adding 50 μM fresh H2O2 (Sigma, H1009) to the growth factor negative NBM on initiation of the experiment with continued culture for 4 hours when LDH was measured and NBM-AO without H2O2 was returned to the culture which was maintained for a further 20 hours before again measuring LDH. […]
# Measurement of lactate dehydrogenase activity (a marker of total cell death) and TUNEL staining (a marker of apoptotic death) was performed according to the kit manufacturer's instructions (Roche, 1164479001 and 11684795910 respectively).
# Within experiments, each comparison was performed at least in triplicate and the mean of these values taken forward into group comparisons. […]
substance,measurement,setting,value
"Gly Arg Arg Ala Ala Pro Gly Arg Aib Gly Gly (GRRAAPGR[Aib]GG) [NRP2945, synthetic 11-mer peptidomimetic optimized for stability and pharmacokinetics]",neuroprotective effects during OGD,[1]; 100 fM NRP2945,did not show neuroprotective effects
same,decrease in LDH detected cell death in presence of CXCR4 inhibitor,"[1]; 4 hours of OGD injury, 100 pM NRP2945 plus 300 nM AMD3100",abolished
same,decrease in LDH detected cell death,"[1]; AMD3100 experiment, 4 hours of OGD injury, 100 pM NRP2945 without inhibitor",44%
same,"reduction of LDH release, net effect at 24 hours","[1]; AMD3100 experiment, OGD, 100 pM NRP2945 without inhibitor",55%
same,reduction in LDH detected cell death,"[1]; OGD, 1 pM NRP2945 at injury induction",23%
same,reduction in LDH detected cell death,"[1]; OGD, 10 pM NRP2945 at injury induction",37%
same,reduction in LDH detected cell death,"[1]; OGD, 100 pM NRP2945 at injury induction",43%
same,"reduction of LDH release, net effect at 24 hours","[1]; OGD, 1 pM NRP2945",28%
same,"reduction of LDH release, net effect at 24 hours","[1]; OGD, 10 pM NRP2945",44%
same,"reduction of LDH release, net effect at 24 hours","[1]; OGD, 100 pM NRP2945",52%
same,"reduction of LDH release, net effect at 24 hours, in presence of CXCR4 inhibitor","[1]; OGD, 100 pM NRP2945 plus 300 nM AMD3100",blocked
same,"reduction of LDH release, net effect at 24 hours","[1]; OGD, 100 fM NRP2945",17%
same,decrease of delayed injury (LDH),[1]; 10 pM NRP2945,67%
same,decrease of delayed injury (LDH),[1]; 100 pM NRP2945,79%
same,reduction in LDH detected cell death,"[1]; repeat experiment, OGD, 10 pM NRP2945 during injury induction",41%
same,reduction in LDH detected cell death,"[1]; repeat experiment, OGD, 10 pM NRP2945 one hour after injury induction",31%
same,reduction in LDH detected cell death,"[1]; repeat experiment, OGD, 100 pM NRP2945 during injury induction",47%
same,reduction in LDH detected cell death,"[1]; repeat experiment, OGD, 100 pM NRP2945 one hour after injury induction",34%
same,"reduction of LDH release, net effect at 24 hours","[1]; repeat experiment, OGD, 10 pM NRP2945 added at 0 hours",48%
same,"reduction of LDH release, net effect at 24 hours","[1]; repeat experiment, OGD, 10 pM NRP2945 added at 1 hour",36%
same,"reduction of LDH release, net effect at 24 hours","[1]; repeat experiment, OGD, 10 pM NRP2945 added at 3 hours",22%
same,"reduction of LDH release, net effect at 24 hours","[1]; repeat experiment, OGD, 100 pM NRP2945 added at 0 hours",54%
same,"reduction of LDH release, net effect at 24 hours","[1]; repeat experiment, OGD, 100 pM NRP2945 added at 1 hour",35%
same,"reduction of LDH release, net effect at 24 hours","[1]; repeat experiment, OGD, 100 pM NRP2945 added at 3 hours",22%
same,cell death reduced by (LDH),[2]; 1 pM NRP2945 at injury induction,35%
same,cell death reduced by (LDH),[2]; 1 fM NRP2945 at injury induction,23.2%
same,cell death reduced by (LDH),[2]; 10 fM NRP2945 at injury induction,40%
same,cell death reduced by (LDH),[2]; 100 fM NRP2945 at injury induction,44%
same,"reduced LDH release, net effect at 24 hours",[2]; 1 pM NRP2945,26%
same,"reduced LDH release, net effect at 24 hours",[2]; 1 fM NRP2945,27%
same,"reduced LDH release, net effect at 24 hours",[2]; 10 fM NRP2945,48%
same,"reduced LDH release, net effect at 24 hours",[2]; 100 fM NRP2945,47%
same,reduction of LDH detected cell death,[2]; 10 fM NRP2945,70%
same,reduction of LDH detected cell death,[2]; 100 fM NRP2945,57%
same,"reduction of LDH release, net effect at 24 hours","[2]; repeat experiment, 10 fM NRP2945 added at 0 hours",48%
same,"reduction of LDH release, net effect at 24 hours","[2]; repeat experiment, 10 fM NRP2945 added at 1 hour",35%
same,"reduction of LDH release, net effect at 24 hours","[2]; repeat experiment, 10 fM NRP2945 added at 3 hours (p≦0.124)",23%
same,"reduction of LDH release, net effect at 24 hours","[2]; repeat experiment, 100 fM NRP2945 added at 0 hours",41%
same,"reduction of LDH release, net effect at 24 hours","[2]; repeat experiment, 100 fM NRP2945 added at 1 hour",39%
same,"reduction of LDH release, net effect at 24 hours","[2]; repeat experiment, 100 fM NRP2945 added at 3 hours",27%
same,reduction in cell death (LDH),"[2]; repeat experiment, first 4 hours of H2O2 injury, 10 fM NRP2945 added at 0 hours",40%
same,reduction in cell death (LDH),"[2]; repeat experiment, first 4 hours of H2O2 injury, 10 fM NRP2945 administered one hour after injury induction",35%
same,reduction in cell death (LDH),"[2]; repeat experiment, first 4 hours of H2O2 injury, 100 fM NRP2945 added at 0 hours",37%
same,reduction in cell death (LDH),"[2]; repeat experiment, first 4 hours of H2O2 injury, 100 fM NRP2945 administered one hour after injury induction",33%
same,effect on cell death (LDH),"[2]; repeat experiment, first 4 hours of H2O2 injury, NRP2945 added 3 hours after injury induction (1 hour exposure)",no significant beneficial effect
